Measured values from US7666905B2, “Compositions comprising hepoxilin analogs and their use in the treatment of cancer” (priority 2002, dated 2010).

Experiments:
K562 cells [1] = assay: Nuclear fragmentation by Hoechst 33342 staining of K562 cells; assay type: cell-based, human; conditions: Hoechst 33342 dye, FIG. 5 Panel B; STI571 1 μM, I-BOP 1 μM
Method: Quantification of apoptosis and cell viability. Induction of apoptosis and loss of cell viability after treatment with PBT-3 were assessed by staining the cells with Hoechst 33342 dye. […] Pellets were suspended with 5 μg/ml of Hoechst 33342 dye for 10 minutes at room temperature. Micrographs of the DNA-stained cells were taken with a Zeiss Axiovert 100 TV video camera. Images were captured using Axiovision version 3.0.6 and processed using Photoshop 5.0. Apoptotic cells were identified based on nuclear fragmentation and chromatin condensation around the nucleus.
Nuclear fragmentation was assessed by direct microscopy of treated cells stained with Hoechst 33342 dye.

K562 CML cells [2] = assay: 3H-thymidine incorporation in K562 CML cells; assay type: cell-based, human; conditions: for effect on K562 cell growth: FIGS. 1-4
Method: Cell culture. Human leukemia K562 cells, obtained from the Hematology Department of the Hospital for Sick Children, were maintained as suspension cultures in RPMI 1640 medium containing 100 U/ml penicillin G, 100 μg/ml streptomycin, 10% (v/v) fetal bovine serum in a humidified atmosphere of 5% CO2 at 37° C. The ability of the cells to exclude Trypan Blue dye was used to assess cell viability.
Cells were seeded in 24 well dishes at a cell number of 5×10^4 cells/ml in starving medium (SM) of alpha Modified Eagle's Medium without fetal bovine serum (FBS) supplementation and incubated at 37° C. for 12 h. Tritiated thymidine ([^3H]-Thymidine; 25 Ci/mmol stock) was diluted in SM to a final activity of […]. The pharmacological agents tested were all diluted from their respective stocks to the desired concentration(s) with the tritiated SM. Cells receiving no drug treatments and cells treated with DMSO only were used as controls. SM was removed from the dishes, then treated with the various pharmacological agents in SM containing tritiated thymidine for 6 h at 37° C. PBT-3 was used at 2.8 μM in DMSO, (other than in dose response studies), I-BOP was used at 1.0 μM (in DMSO) and U46619 was used at 1.0 μM (in DMSO). Cells were trypsinized after 6 h and washed through Whatman GF-B/C membranes along with the supernatant. Dried membranes were deposited in scintillation vials with 8ml scintillation cocktail and the radioactivity present in the cells was counted with a liquid scintillation counter.
The effect of hepoxilin analogs on leukemia cells was examined using the CML K562 cell line. This cell line was derived from a human CML patient and is an accepted model of human chronic leukemia. The K562 cell line expresses the bcr/abl protein (Lozzio & Lozzio, 1975). It is relatively resistant to apoptosis (Martin et al., 1990), but ST1571 and other agents appear to control cell growth for a while before the cells overcome the drug effect (Weisberg & Griffin, 2000).

K562 cells [3] = assay: 3H thymidine uptake in K562 cells after 2 days treatment, cell number reduction and culture without drug; assay type: cell-based, human; conditions: PBT analogues 28 μM, I-BOP and STI571 1 μM, then 3 days without compounds, FIG. 13
Method: K562 cells (3×10^5 cells/plate) were cultured for 2 days in 1% FBS/αMEM in the presence of 28 μM PBT-3 (∘) or 1 μM STI (●) and ^3H thymidine incorporation was determined. Untreated control cells (□) and cells treated with DMSO alone (▪) were also examined (test compounds were dissolved in DMSO). Results are shown in FIG. 12, Panel A. The cell number in all dishes was reduced to that observed after two days of PBT-3 treatment (7.5×10^3/ml) and the cells were subsequently cultured for 3 days in 10% FBS in the absence of the test compounds.
The hepoxilin analogs compare very favourably in efficacy with STI571.

3T3 L1 adipocytes = assay: FACS analysis of apoptosis in normal 3T3 L1 adipocytes; assay type: cell-based; conditions: FIG. 10
Method: (§1) Cells were seeded at 1×10^6 cells/ml and treated as above. Cells were scraped into 1×PBS, pelleted, washed, and repelleted as above. Cells were washed with PBS twice and scraped. The cells were pelleted by centrifugation at 1500 rpm, 5 min, at 23° C. and washed again. Cells were fixed with 50 μl PBS/HBSS with 2% calf serum and then with addition of 1 ml ice cold 80% ethanol. Samples were incubated on ice for 30 min and PBS/HBSS fixing was repeated and followed by adding 1 ml 70% ethanol. Centrifugation (1500 rpm, 5 min, room temperature) was performed to produce cell pellets that were resuspended by 250 μl of 0.1 mg/ml Propidium Iodide (Sigma) with 0.6% NP-40. 250 μl of 2 mg/ml RNAse was added and mixed well. Cells were incubated in the dark for 30 min at room temperature. Samples were then filtered through 85 μm Nitex mesh and the stained cells were analyzed on a flow cytometer of FACScan (Becton-Dickinson). The acquisition was done with 10,000 events per sample. The CellQuest (Becton-Dickinson) statistic analysis was performed in each individual experiment.

Bcl-XL = assay: Western blot of Bcl-XL expression in K562 cells; assay type: cell-based, human; conditions: FIG. 11
Method: (§2) Cells were seeded in 100 mm culture dishes at a cell count of 5×10^4 cells/ml in 10 ml of SM and incubated at 37° C. for 12 h. Drug treatments were: DMSO as control, 0.05 μM I-BOP in DMSO, 0.5 μM I-BOP with 2.8 μM PBT-3, or 2.8 μM PBT-3 in DMSO. These concentrations were chosen based on results generated from the cell proliferation studies using thymidine incorporation. Cells were treated with drugs as described above for 6 h. After 6 h, cells were washed with 1×PBS and scraped, pelleted by centrifugation (1500 rpm, 5 min, room temperature), and washed again and pelleted as above. 200 μl cell lysis buffer (20 mM Tris-d pH 7.4, 150 mM NaCl, 1 mM EDTA, 1 mM EGTA, 1% Tx-100, 2.5 mM […], 1 mM β-glycerophosphate, 1 mM […], 1 μg/ml leupeptin, and 1 mM PMSF) were added to resuspend each pellet followed by 30 minutes of incubation on ice. […] Protein concentration was determined using a BSA standard with a BCA protein assay kit, prior to Western blotting.
(§3) Aliquots of protein (40 μg) were heated to 90° C. in SDS sample load buffer for 5 minutes, then separated by SDS-PAGE on 10% gels and transferred to nitrocellulose membranes. […] Membranes were then washed 5× in TBS-T. Bound first antibodies were detected by HRP-anti-rabbit immunoglobulins at 1:1000 in 5% non-fat dry milk for 1 h at room temperature, washing 5× in TBS-T then with enhanced chemiluminscent autoradiography (ECL). […]

[4] = test system: normal aortic smooth muscle cells; assay: FACS analysis of apoptosis in normal aortic smooth muscle cells; assay type: cell-based; conditions: FIG. 9
Method: as §1

normal bone marrow cells = assay: FACS analysis of apoptosis in normal bone marrow cells; assay type: cell-based; conditions: FIG. 8
Method: as §1

caspase-3 = assay: Western blot of caspase-3 activation (cleavage to 17 kDa fragment) in K562 cells; assay type: cell-based, human; conditions: FIG. 14
Method: Western blot. […] Treatment was terminated by washing cells with ice-cold PBS buffer. Cell lysates were prepared in buffer containing 20 mM Tris-HCl pH 7.4, 150 mM NaCl, 1 mM EDTA, 1 mM EGTA, 1% Triton X-100, 2.5 mM sodium pyrophosphate, 1 mM β-glycerophosphate, 1 mM sodium orthovanadate, 1 mM PMSF and 1 μM leupeptin on ice for 60 minutes. The lysates were clarified by centrifugation at 15,000×g for 15 minutes at 4° C. Lysates were subjected to protein assay and kept at −80° C. 250 μg protein was immunoprecipitated with anti-cytochrome c antibody or anti-caspase-3 antibody coupled to protein A-agarose beads. After washing of the immunocomplexes with lysis buffer, SDS-PAGE sample loading buffer was added and the mixture was boiled for 5 minutes. After centrifugation, the supernatant was loaded onto 10-12% SDS-PAGE gel, and transferred to the Trans-Blot Nitrocellulose membrane (Bio-Rad). Protein bands on the nitrocellulose membranes were checked visually with Ponceau S-staining to assure equivalent protein loading/transfer comparing different samples. […] Bound antibodies were detected using enhanced chemilluminescence (ECL) kit and the membranes were exposed to Hyperfilm for ECL.

K562 CML cells [5] = assay: DNA fragmentation (laddering) by agarose gel electrophoresis in K562 cells; assay type: cell-based, human; conditions: PBT-3 2.8 μM, 24 or 72 hours, FIG. 5 Panel A
Method: Analysis of DNA fragmentation by gel electrophoresis. […] The samples were loaded on 2% agarose gel containing ethidium bromide (0.2 μg/ml). DNA fragments of known size were used as a reference marker. After electrophoresis at 25 V for 5 hours, the gels were photographed under trans-UV illumination.
Studies were carried out to determine if PBT-3 affected apoptosis in K562 CML cells. Cells were cultured for 24 or 72 hours in the presence of growth medium (control) or PBT-3 (2.8 μM). Apoptosis was examined by DNA laddering. Cultures were harvested, DNA was extracted with DNeasy (Qiagen) and samples were loaded on a 2% agarose gel containing 0.2 μg/ml ethidium bromide. A λ BstII DNA digest with DNA fragments of known size was used as a reference marker. After electrophoresis at 25V for 5 h, gels were photographed under trans-UV illumination.

Akt = assay: Western blot of Akt phosphorylation in K562 cells; assay type: cell-based, human; conditions: FIG. 11
Method: as §2, §3

[6] = test system: MDA-MB 231 breast cancer cells; assay: FACS analysis of breast cancer cell line MDA-MB 231; assay type: cell-based; conditions: FIG. 7
Method: as §1

O=C(O)CCC/C=C\CC1C2CCC(O2)C1/C=C/C(O)COc1ccc(I)cc1 (stereo not drawn) [I-BOP, [1S-[1α,2α(Z),3β(1E, 3S*), 4α]]-7-[3-[3-hydroxy-4-(iodophenoxy)-1-butenyl]-7-oxabicyclo[2.2.1]hept-2-yl]-5-heptenoic acid, reference compound]
apoptotic effect (fragmentation of the nucleus and chromatin condensation) (K562 cells [1]): No similar apoptotic effect
effect on K562 cell growth (K562 CML cells [2]): neither the thromboxane receptor agonists nor the thromboxane receptor antagonist affected K562 cell growth

CCCCC/C=C\CC1CC1/C=C/C(O)C/C=C\CCCC(=O)OC [PBT-2, 8(R)-hydroxy-11, 12-cyclopropyl-eicosa-5Z, 9E, 14Z-trienoic acid methyl ester]
effectiveness in inhibiting cell growth (rank among treatments) (K562 cells [3]): most effective treatment

CCCCC/C=C\CC1CC1C(O)/C=C\C/C=C\CCCC(=O)OC [PBT-3, 10(S)-hydroxy-11,12-cyclopropyl-eicosa-5Z,8Z,14Z-trienoic acid methyl ester]
apoptotic effect (fragmentation of the nucleus and chromatin condensation) (K562 cells [1]): produced apoptotic cells
apoptotic effect on normal (3T3 L1) adipocytes (3T3 L1 adipocytes): no apoptotic effect
effect on expression of the Bcl pathway (Bcl-XL) (Bcl-XL): essentially inactive
apoptotic effect on normal aortic smooth muscle cells [4]: no apoptotic effect
concentration of maximum effect on inhibition of K562 cell growth (K562 CML cells [2]; FIG. 1): 1 µg/mL
effect on K562 cell growth (K562 CML cells [2]): inhibited growth of K562 cells
apoptotic effect on normal bone marrow cells (normal bone marrow cells): no apoptotic effect
time of caspase-3 activation (cleavage into a 17 kDa fragment) (caspase-3): 6 h
DNA fragmentation associated with apoptosis (K562 CML cells [5]): causes DNA fragmentation associated with apoptosis
effect on phosphorylation of Akt (Akt): blocked phosphorylation of Akt
synchronisation of cells (to Go phase) [6]: synchronisation effect

O=C(O)CCC/C=C\C[C@@H]1[C@H](CNNC(=O)Nc2ccccc2)[C@H]2CC[C@@H]1O2 [SQ 29,548]
effect on K562 cell growth (K562 CML cells [2]): neither the thromboxane receptor agonists nor the thromboxane receptor antagonist affected K562 cell growth

Cc1ccc(NC(=O)c2ccc(CN3CCN(C)CC3)cc2)cc1Nc1nccc(-c2cccnc2)n1 [STI571, Imatinib, reference compound]
effect on expression of the Bcl pathway (Bcl-XL) (Bcl-XL): blocked the expression of the Bcl pathway (Bcl-XL)
effect on phosphorylation of Akt (Akt): increased it

CCCCC[C@H](O)/C=C/[C@@H]1[C@@H](C/C=C\CCCC(=O)O)[C@H]2CO[C@@H]1C2 [U46619]
effect on K562 cell growth (K562 CML cells [2]): neither the thromboxane receptor agonists nor the thromboxane receptor antagonist affected K562 cell growth
